According to patent publication US12570642B2, “GLP-IR modulating compounds” (Gilead Sciences, Inc., priority 2021, dated 2026):

The molecules below were run against GLP-1R (Homo sapiens, UniProt P43220) (assay: GLP-1R Activation - cAMP Assay). Settings: […]; each compound run on one of the two cAMP assays (Assay 1 or Assay 2, not specified).
GLP-1R, sequence (P43220 24-463): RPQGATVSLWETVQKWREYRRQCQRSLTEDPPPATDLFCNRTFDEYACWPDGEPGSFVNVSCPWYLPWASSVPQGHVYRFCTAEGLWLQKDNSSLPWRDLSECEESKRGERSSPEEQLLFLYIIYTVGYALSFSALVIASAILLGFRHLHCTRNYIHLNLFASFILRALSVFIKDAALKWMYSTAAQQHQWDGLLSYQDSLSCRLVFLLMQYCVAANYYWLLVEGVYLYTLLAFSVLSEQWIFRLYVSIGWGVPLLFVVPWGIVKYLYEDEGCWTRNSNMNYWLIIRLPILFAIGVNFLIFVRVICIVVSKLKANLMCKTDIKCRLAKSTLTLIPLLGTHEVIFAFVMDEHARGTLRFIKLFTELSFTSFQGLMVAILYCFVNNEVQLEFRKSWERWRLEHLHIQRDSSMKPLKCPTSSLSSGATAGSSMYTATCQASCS
Assay type: cell-based
Procedure, shortened: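 CHO cells stably expressing GLP-1R, plated at 1,000 cells/well overnight, then equilibrated 1 h in HBSS with 20 mM Hepes and 0.1% BSA. Agonist added as 10-point dose response for 30 min at 37 °C. cAMP measured by HTRF (Cisbio Gs Dynamic kit); EC50 from sigmoidal fit.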
CC(=O)N[C@@H]1COC[C@@H]1n1c(Cc2cc(F)c(-c3cccc(OCc4ccc(C#N)cc4F)n3)cc2F)nc2ccc(C(=O)O)cc21 [Example 17, 1-((3R,4S)-4-acetamidotetrahydrofuran-3-yl)-2-(4-(6-((4-cyano-2-fluorobenzyl)oxy)pyridin-2-yl)-2,5-difluorobenzyl)-1H-benzo[d]imidazole-6-carboxylic Acid] showed an EC50 of 5.61 nM.

Same assay, conditions: cAMP increase in CHO cells stably expressing GLP-1R; each compound run on one of the two cAMP assays (Assay 1 or Assay 2, not specified)
CC(=O)N1C[C@@H]2[C@H](n3c(Cc4cc(F)c(-c5cccc(OCc6ccc(C#N)cc6F)n5)cc4F)nc4ccc(C(=O)O)cc43)CO[C@@H]2C1 [Example 18, 1-((3S,3aR,6aS)-5-acetylhexahydro-2H-furo[2,3-c]pyrrol-3-yl)-2-(4-(6-((4-cyano-2-fluorobenzyl)oxy)pyridin-2-yl)-2,5-difluorobenzyl)-1H-benzo[d]imidazole-6-carboxylic Acid] gave an EC50 of 49.2 nM.
N#Cc1ccc(COc2cccc(-c3cc(F)c(Cc4nc5ccc(C(=O)O)cc5n4[C@@H]4CO[C@H]5OCC[C@H]54)cc3F)n2)c(F)c1 [Example 19] gave an EC50 of 0.6 nM.
For N#Cc1ccc(COc2cccc(-c3cc(F)c(Cc4nc5ccc(C(=O)O)cc5n4[C@H]4CO[C@H]5OCC[C@H]54)cc3F)n2)c(F)c1 [Example 20, 2-(4-(6-((4-cyano-2-fluorobenzyl)oxy)pyridin-2-yl)-2,5-difluorobenzyl)-1-((3R,3aS,6aR)-hexahydrofuro[2,3-b]furan-3-yl)-1H-benzo[d]imidazole-6-carboxylic Acid], the EC50 was 0.35 nM.
For CC1(C)COCC1n1c(Cc2cc(F)c(-c3cccc(OCc4ccc(C(F)F)cc4F)n3)cc2F)nc2ccc(C(=O)O)cc21 (stereo not shown) [Example 21, 2-(4-(6-((4-(difluoromethyl)-2-fluorobenzyl)oxy)pyridin-2-yl)-2,5-difluorobenzyl)-1-(4,4-dimethyltetrahydrofuran-3-yl)-1H-benzo[d]imidazole-6-carboxylic Acid], the EC50 was 0.11 nM.
CC(Cn1c(Cc2cc(F)c(-c3cccc(OCc4ccc(C#N)cc4F)n3)cc2F)nc2ccc(C(=O)O)cc21)OC(F)F (stereo not shown) [Example 22, 2-(4-(6-((4-cyano-2-fluorobenzyl)oxy)pyridin-2-yl)-2,5-difluorobenzyl)-1-(2-(difluoromethoxy)propyl)-1H-benzo[d]imidazole-6-carboxylic Acid] was tested, and the EC50 was 0.72 nM.
COCCn1c(Cc2cc(F)c(-c3cccc(OCc4ncc(Br)cc4F)n3)cc2F)nc2ccc(C(=O)O)cc21 [Example 23] was tested, and the EC50 was 4.57 nM.
With COCCn1c(Cc2cc(F)c(-c3cccc(OCc4cnc(Cl)cn4)n3)cc2F)nc2ccc(C(=O)O)cc21 [Example 24, 2-(4-(6-((5-chloropyrazin-2-yl)methoxy)pyridin-2-yl)-2,5-difluorobenzyl)-1-(2-methoxyethyl)-1H-benzo[d]imidazole-6-carboxylic Acid] the EC50 was 9.96 nM.
COCCn1c(Cc2cc(F)c(-c3cccc(OCc4ccc(C)nc4C)n3)cc2F)nc2ccc(C(=O)O)cc21 [Example 25] gave an EC50 of 7.55 nM.
With COCCn1c(Cc2cc(F)c(-c3cccc(OCc4cc(F)ccc4F)n3)cc2F)nc2ccc(C(=O)O)cc21 [Example 26, 2-(4-(6-((2,5-difluorobenzyl)oxy)pyridin-2-yl)-2,5-difluorobenzyl)-1-(2-methoxyethyl)-1H-benzo[d]imidazole-6-carboxylic Acid] the EC50 was 18.7 nM.
COCCn1c(Cc2cc(F)c(-c3cccc(OCc4cc(F)c(F)cc4F)n3)cc2F)nc2ccc(C(=O)O)cc21 [Example 27, 2-(2,5-difluoro-4-(6-((2,4,5-trifluorobenzyl)oxy)pyridin-2-yl)benzyl)-1-(2-methoxyethyl)-1H-benzo[d]imidazole-6-carboxylic Acid] showed an EC50 of 13.1 nM.
For COCCn1c(Cc2cc(F)c(-c3cccc(OCc4cc(F)c(C)cc4F)n3)cc2F)nc2ccc(C(=O)O)cc21 [Example 28, 2-(4-(6-((2,5-difluoro-4-methylbenzyl)oxy)pyridin-2-yl)-2,5-difluorobenzyl)-1-(2-methoxyethyl)-1H-benzo[d]imidazole-6-carboxylic Acid], the EC50 was 1.46 nM.
COCCn1c(Cc2cc(F)c(-c3cccc(OCc4cnc(C)cn4)n3)cc2F)nc2ccc(C(=O)O)cc21 [Example 29, 2-(2,5-difluoro-4-(6-((5-methylpyrazin-2-yl)methoxy)pyridin-2-yl)benzyl)-1-(2-methoxyethyl)-1H-benzo[d]imidazole-6-carboxylic Acid] showed an EC50 of 36 nM.
COCCn1c(Cc2cc(F)c(-c3cccc(OCc4ccc5nccn5c4)n3)cc2F)nc2ccc(C(=O)O)cc21 [Example 30, 2-(2,5-difluoro-4-(6-(imidazo[1,2-a]pyridin-6-ylmethoxy)pyridin-2-yl)benzyl)-1-(2-methoxyethyl)-1H-benzo[d]imidazole-6-carboxylic Acid] showed an EC50 of 49.9 nM.
With COCCn1c(Cc2cc(F)c(-c3cccc(OCc4ncc(F)cc4F)n3)cc2F)nc2ccc(C(=O)O)cc21 [Example 31, 2-(4-(6-((3,5-difluoropyridin-2-yl)methoxy)pyridin-2-yl)-2,5-difluorobenzyl)-1-(2-methoxyethyl)-1H-benzo[d]imidazole-6-carboxylic Acid] the EC50 was 30.4 nM.
Work on COCCn1c(Cc2cc(F)c(-c3cccc(OCc4ccc(OC(F)(F)F)cc4)n3)cc2F)nc2ccc(C(=O)O)cc21 [Example 32, 2-(2,5-difluoro-4-(6-((4-(trifluoromethoxy)benzyl)oxy)pyridin-2-yl)benzyl)-1-(2-methoxyethyl)-1H-benzo[d]imidazole-6-carboxylic Acid] yielded an EC50 of 3.43 nM.
In the case of COCCn1c(Cc2cc(F)c(-c3cccc(OCc4ccc(C(F)(F)F)nc4C)n3)cc2F)nc2ccc(C(=O)O)cc21 [Example 33, 2-(2,5-difluoro-4-(6-((2-methyl-6-(trifluoromethyl)pyridin-3-yl)methoxy)pyridin-2-yl)benzyl)-1-(2-methoxyethyl)-1H-benzo[d]imidazole-6-carboxylic Acid], the EC50 is reported as 2.58 nM.
Molecule COCCn1c(Cc2cc(F)c(-c3cccc(OCc4ccc(C(F)(F)F)nc4Cl)n3)cc2F)nc2ccc(C(=O)O)cc21 [Example 34, 2-(4-(6-((2-chloro-6-(trifluoromethyl)pyridin-3-yl)methoxy)pyridin-2-yl)-2,5-difluorobenzyl)-1-(2-methoxyethyl)-1H-benzo[d]imidazole-6-carboxylic Acid] has an EC50 of 3.25 nM.
Molecule COCCn1c(Cc2cc(F)c(-c3cccc(OCc4ccc(OCC(F)(F)F)nc4)n3)cc2F)nc2ccc(C(=O)O)cc21 [Example 35, 2-(2,5-difluoro-4-(6-((6-(2,2,2-trifluoroethoxy)pyridin-3-yl)methoxy)pyridin-2-yl)benzyl)-1-(2-methoxyethyl)-1H-benzo[d]imidazole-6-carboxylic Acid] has an EC50 of 2.67 nM.
COCCn1c(Cc2cc(F)c(-c3cccc(OCc4cnc(-c5cnn(C(F)F)c5)cn4)n3)cc2F)nc2ccc(C(=O)O)cc21 [Example 36] showed an EC50 of 1.04 nM.
COCCn1c(Cc2cc(F)c(-c3cccc(OCc4cnc(-c5cn(C)nn5)cn4)n3)cc2F)nc2ccc(C(=O)O)cc21 [Example 37, 2-(2,5-difluoro-4-(6-((5-(1-methyl-1H-1,2,3-triazol-4-yl)pyrazin-2-yl)methoxy)pyridin-2-yl)benzyl)-1-(2-methoxyethyl)-1H-benzo[d]imidazole-6-carboxylic Acid] showed an EC50 of 1.97 nM.
For COCCn1c(Cc2cc(F)c(-c3cccc(OCc4cnc(-c5cnn(C)c5)cn4)n3)cc2F)nc2ccc(C(=O)O)cc21 [Example 38, 2-(2,5-difluoro-4-(6-((5-(1-methyl-1H-pyrazol-4-yl)pyrazin-2-yl)methoxy)pyridin-2-yl)benzyl)-1-(2-methoxyethyl)-1H-benzo[d]imidazole-6-carboxylic Acid], the EC50 was 4.02 nM.
